How the values were obtained:
Experiment in all cases: normalised viability (% of control), CellTiter-Blue; higher = more viable cells (about 100 = DMSO control)
Conditions in all cases: incubation time: 72 h
[1] = system: SK-BR-3
Outline: (§1)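 Normalised viability is given for a single listed concentration of the series. In 384-well plates, breast cancer cell lines were incubated 72 h with compound, then read with CellTiter-Blue (2 h, 37 °C) at 560/590 nm. Per-plate scaling set vehicle to 100 and a positive kill control to 0, with Z'-factor quality control.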

[2] = system: MDA-MB-436
Outline: as §1

[3] = system: CAL-51
Outline: as §1

[4] = system: HCC1143
Outline: as §1

[5] = system: MDA-MB-468
Outline: as §1

[6] = system: DU-4475
Outline: as §1

[7] = system: Hs578T
Outline: as §1

[8] = system: BT-549
Outline: as §1

[9] = system: MFM-223
Outline: as §1

[10] = system: MDA-MB-231
Outline: as §1

[11] = system: HDQ-P1
Outline: as §1

[12] = system: HCC1599
Outline: as §1

[13] = system: HCC1937
Outline: as §1

[14] = system: BT-474
Outline: as §1

[15] = system: CAL-120
Outline: as §1

[16] = system: MDA-MB-453
Outline: as §1

[17] = system: CAL-148
Outline: as §1

[18] = system: CAL-85-1
Outline: as §1

Nc1cc(C(F)(F)F)c(-c2cc(N3CCOCC3)nc(N3CCOCC3)n2)cn1 [BKM-120]
normalised viability [%]
Conditions	3 nM	10 nM	30 nM	100 nM	1000 nM	10000 nM
[1]	–	101	–	–	24.4	9.47
[2]	–	82.4	–	–	93.8	16.5
[3]	100	–	92.1	84.3	–	–
[4]	–	81.4	–	–	72.8	20.8
[5]	–	97.7	–	–	78.7	15.3
[6]	104	–	93.3	101	–	–
[7]	–	114	–	–	88.7	9.62
[8]	–	78.3	–	–	62.5	10.8
[9]	–	92.2	–	–	60.2	14.5
[10]	–	94.2	–	–	69.1	15.3
[11]	97.8	–	107	97.7	–	–
[12]	–	92.8	–	–	63.6	32.7
[13]	–	121	–	–	87.9	13.7
[14]	–	129	–	–	64.3	11.1
[15]	–	81.1	–	–	54.5	13.5
[16]	111	–	114	96.7	–	–
[17]	94.3	–	104	98.7	–	–
[18]	95.8	–	80.2	92	–	–

CN(C)CCOc1ccc(/C(=C(/CCCl)c2ccccc2)c2ccccc2)cc1 [Toremifene]
normalised viability [%]
Conditions	3 nM	10 nM	30 nM	100 nM	1000 nM	10000 nM
[1]	–	113	–	–	107	91.4
[2]	–	99	–	–	96.3	71.1
[3]	107	–	98.4	110	–	–
[4]	–	92.5	–	–	97.3	102
[5]	–	104	–	–	109	17.9
[6]	110	–	98.6	99.4	–	–
[7]	–	122	–	–	109	94.6
[8]	–	106	–	–	113	88.1
[9]	–	98.1	–	–	96.1	71.8
[10]	–	95.8	–	–	101	108
[11]	108	–	109	113	–	–
[12]	–	127	–	–	97.5	89.6
[13]	–	129	–	–	93.1	114
[14]	–	132	–	–	119	92.4
[15]	–	85.2	–	–	96.1	79.1
[16]	126	–	91.4	112	–	–
[17]	94	–	97.6	108	–	–
[18]	99.2	–	92.9	95.8	–	–

O=C(Nc1ccncc1)C(=O)c1cn(Cc2ccc(Cl)cc2)c2ccccc12 [Indibulin]
normalised viability [%]
Conditions	3 nM	10 nM	30 nM	100 nM	1000 nM	10000 nM
[1]	–	94.5	–	–	19.9	20.6
[2]	–	111	–	–	41.4	66.3
[3]	106	–	104	102	–	–
[4]	–	80.7	–	–	41.1	41
[5]	–	95.7	–	–	49.8	36.7
[6]	111	–	93.7	123	–	–
[7]	–	110	–	–	56.3	18.5
[8]	–	103	–	–	31.4	23.5
[9]	–	112	–	–	63.7	68.5
[10]	–	103	–	–	20.3	16.1
[11]	90.5	–	87.7	74.8	–	–
[12]	–	113	–	–	124	103
[13]	–	74.5	–	–	21.1	23.1
[14]	–	99.9	–	–	47.2	39.2
[15]	–	85.7	–	–	35.9	28.1
[16]	97.2	–	61.7	65.5	–	–
[17]	95.4	–	92.1	94.5	–	–
[18]	102	–	91.3	95	–	–

Cc1[nH]c2ccccc2c1CCNCc1ccc(/C=C/C(=O)NO)cc1 [Panobinostat]
normalised viability [%]
Conditions	0.3 nM	1 nM	3 nM	10 nM	100 nM	1000 nM
[1]	–	96.9	–	–	5.41	3.54
[2]	–	110	–	–	59.1	17
[3]	113	–	111	97.2	–	–
[4]	–	102	–	–	20.7	12.2
[5]	–	108	–	–	52.2	16.7
[6]	112	–	92.4	81.6	–	–
[7]	–	152	–	–	13.8	5.54
[8]	–	97.7	–	–	68.7	14.7
[9]	–	102	–	–	20.2	14.8
[10]	–	120	–	–	13.3	7.26
[11]	120	–	115	93.1	–	–
[12]	–	99.7	–	–	23	16.3
[13]	–	110	–	–	26.2	15.1
[14]	–	118	–	–	4.44	9.36
[15]	–	109	–	–	9.65	3.59
[16]	121	–	64.3	22.7	–	–
[17]	96.5	–	104	59.4	–	–
[18]	98	–	88.3	81.4	–	–

Cc1cc(Nc2cc(CN3CCOCC3)c3nc(C)c(Cc4ccc(Cl)cc4F)n3n2)n[nH]1
normalised viability [%]
Conditions	3 nM	10 nM	30 nM	100 nM	1000 nM	10000 nM
[1]	–	102	–	–	70.9	30.5
[2]	–	109	–	–	71.1	36.8
[3]	97.1	–	95.2	94.2	–	–
[4]	–	78.1	–	–	58.9	35.5
[5]	–	103	–	–	61.4	7.11
[6]	110	–	94.7	122	–	–
[7]	–	110	–	–	81.6	2.66
[8]	–	97.8	–	–	78.8	9.99
[9]	–	102	–	–	50.6	44.8
[10]	–	102	–	–	83.6	18.7
[11]	89.9	–	82	82.4	–	–
[12]	–	109	–	–	90.5	92
[13]	–	80.4	–	–	64.7	44
[14]	–	109	–	–	96.6	49.7
[15]	–	83.7	–	–	57.6	14.8
[16]	90.4	–	101	82.8	–	–
[17]	84.1	–	87.7	88.2	–	–
[18]	87.2	–	83.3	93.1	–	–

CNC(=O)c1cc(Oc2ccc(NC(=O)Nc3ccc(Cl)c(C(F)(F)F)c3)c(F)c2)ccn1 [Regorafenib]
normalised viability [%]
Conditions	3 nM	10 nM	30 nM	100 nM	1000 nM	10000 nM
[1]	–	93.5	–	–	95.8	72.2
[2]	–	115	–	–	102	65.2
[3]	106	–	106	104	–	–
[4]	–	76.8	–	–	77.8	75.4
[5]	–	111	–	–	116	34.5
[6]	114	–	100	120	–	–
[7]	–	96.4	–	–	90.7	38.3
[8]	–	98.8	–	–	102	37.4
[9]	–	107	–	–	57.1	31.2
[10]	–	90.5	–	–	68.1	31.7
[11]	101	–	109	100	–	–
[12]	–	100	–	–	107	56.3
[13]	–	94.9	–	–	90.3	35.1
[14]	–	94.5	–	–	103	38.8
[15]	–	89.4	–	–	102	46
[16]	102	–	109	101	–	–
[17]	88	–	90.2	95.3	–	–
[18]	84.7	–	89.1	88	–	–

S=P(N1CC1)(N1CC1)N1CC1 [Thio-TEPA]
normalised viability [%]
Conditions	30 nM	100 nM	300 nM	1000 nM	10000 nM	100000 nM
[1]	–	102	–	–	99.3	97.1
[2]	–	110	–	–	87.7	123
[3]	95.4	–	97.1	97.4	–	–
[4]	–	109	–	–	95.9	81.7
[5]	–	104	–	–	107	95.3
[6]	97.2	–	98.7	91.8	–	–
[7]	–	115	–	–	95.6	109
[8]	–	95.2	–	–	119	116
[9]	–	105	–	–	106	104
[10]	–	103	–	–	83.2	64.4
[11]	111	–	115	104	–	–
[12]	–	97.8	–	–	82.7	94.7
[13]	–	102	–	–	93.4	83.6
[14]	–	119	–	–	114	115
[15]	–	90.7	–	–	86.8	93.7
[16]	111	–	113	104	–	–
[17]	93.8	–	92.7	105	–	–
[18]	99.9	–	96.4	102	–	–

C=C1C[C@@H]2[C@H](CC[C@]3(C)C(=O)CC[C@@H]23)[C@@]2(C)C=CC(=O)C=C12 [Exemestane]
normalised viability [%]
Conditions	3 nM	10 nM	30 nM	100 nM	1000 nM	10000 nM
[1]	–	85.2	–	–	101	79.3
[2]	–	112	–	–	87.4	96.2
[3]	101	–	95.8	86.5	–	–
[4]	–	88.7	–	–	97.8	82.8
[5]	–	109	–	–	112	96.5
[6]	95.1	–	98	79.4	–	–
[7]	–	112	–	–	110	100
[8]	–	83.5	–	–	108	85.9
[9]	–	90.6	–	–	101	108
[10]	–	101	–	–	98.1	124
[11]	94.5	–	98.5	97.1	–	–
[12]	–	81.7	–	–	86.6	77
[13]	–	87.7	–	–	88.3	87.8
[14]	–	111	–	–	93.7	103
[15]	–	96.1	–	–	92.7	84
[16]	103	–	87.3	97.8	–	–
[17]	95.1	–	88.7	87	–	–
[18]	90.6	–	81.8	89.8	–	–

N#Cc1ccc(COC[C@H]2O[C@@H](n3c(NCc4ccc(Cl)c(Cl)c4)nc4c(N)ncnc43)[C@H](O)[C@@H]2O)cc1
normalised viability [%]
Conditions	3 nM	10 nM	30 nM	100 nM	1000 nM	10000 nM
[1]	–	115	–	–	102	37.3
[2]	–	95.2	–	–	84.8	50.9
[3]	118	–	110	110	–	–
[4]	–	90.1	–	–	87.4	60.8
[5]	–	108	–	–	89.7	68.7
[6]	97.8	–	88.7	113	–	–
[7]	–	104	–	–	99.3	73.8
[8]	–	87.7	–	–	84	34.4
[9]	–	93	–	–	101	93.6
[10]	–	128	–	–	77.3	57.2
[11]	115	–	104	105	–	–
[12]	–	97.3	–	–	65.6	22
[13]	–	135	–	–	78.5	71.8
[14]	–	135	–	–	95	89.5
[15]	–	103	–	–	110	62.4
[16]	124	–	95.7	91.4	–	–
[17]	101	–	105	99.3	–	–
[18]	108	–	107	110	–	–

From the supplement of paper PMC4862054
